According to patent publication US20090143468A1, “PET FOOD COMPOSITIONS AND METHODS” (priority 2004, published 2009):

How the values were obtained:
[1] = test system: PGE2 production in osteoblasts; test: PGE2 formation in osteoblasts (enzyme immunoassay); format: cell-based
Procedure: (§1) Experiments are conducted to determine how SDA treatment of osteoblast-like cells in culture influence the polyunsaturated fatty acid (PUFA) composition. The osteoblast cell line MC3T3-E1 is cultured in growth medium (GM) consisting of DMEM supplemented with 10% fetal bovine serum (FBS), ascorbic acid, β-glycerol-phosphate, and 1% antimicrobial solution. The cells are plated in 24-well plates at a density of 1.2×10^4 cells per ml for 3 days until confluent. Once confluent, corresponding to the initialization of the osteoblastic phenotype, the medium is either changed for SDA or linoleic acid (LNA) treatment or cultured further in GM until subjected to the various treatments. At the end of the 3 day fatty acid treatment period, cultures are exposed to agents that induce COX-2 expression. The two agents utilized are forskolin (FSK) and interleukin-1 (IL-1). These agents are selected on the basis of their respective actions on the COX-2 gene. Forskolin, an activator of adenylate cyclase, increases cyclic-AMP (cAMP) concentrations. […]
Western Blot. […] Optical density is determined using Optimus image analyzing software (version 6.1). […]
PGE2 Formation. In the experiments, already detailed in the section on Western blotting, PGE2 levels in the medium of induced and non-induced cells are determined using an enzyme immunoassay kit (Cayman Chemical, Ann Arbor, Mich.).

[2] = test system: Alkaline phosphatase (ALP) activity in osteoblast cells MC3T3-E1; test: Alkaline phosphatase (ALP) activity, method of Lowry; format: cell-based; settings: all time points evaluated; relative to linolenic acid
Procedure: as §1, with “concentrations. Interleukin-1, itself a bone resorption agent binding to its receptor on the cellular membrane, launches a cascade resulting in the activation of the transcription factor nuclear-factor κ-B (NFκB). Cyclic-AMP and NFκB both activate the expression of the COX-2 gene.” for “concentrations.”
Enzyme activity: Alkaline phosphatase (ALP) activity is determined by the method of Lowry.

[3] = test system: other cell cultures; test: Omega-3 fatty acid concentrations in other cell cultures; format: cell-based; settings: compared with linolenic acid (18:3n-3)
[4] = Beagle feeding study, diets supplemented with SDA or linolenic acid; format: in vivo, beagles; settings: dogs, low essential fatty acid diet 90 days
Excerpt: Experiments are also designed to evaluate the effect of SDA on the pet, such as a dog or cat. As an example, beagles are provided with a low essential fatty acid diet for a period of 90 days. Diets supplemented with SDA or linolenic acid are provided for the subsequent 30 days.

[5] = test system: osteoblast cell line MC3T3-E1; test: Fatty acid compositional analysis of osteoblasts; format: cell-based
Procedure: Experiments are conducted to determine how SDA treatment of osteoblast-like cells in culture influence the polyunsaturated fatty acid (PUFA) composition. The osteoblast cell line MC3T3-E1 is cultured in growth medium (GM) consisting of DMEM supplemented with 10% fetal bovine serum (FBS), ascorbic acid, β-glycerol-phosphate, and 1% antimicrobial solution. The cells are plated in 24-well plates at a density of 1.2×10^4 cells per ml for 3 days until confluent. Once confluent, corresponding to the initialization of the osteoblastic phenotype, the medium is either changed for SDA or […] (LNA) treatment or cultured further in GM until subjected to the various treatments. At the end of the 3 day fatty acid treatment period, cultures are exposed to agents that induce COX-2 expression. The two agents utilized are forskolin (FSK) and interleukin-1 (IL-1). These agents are selected on the basis of their respective actions on the COX-2 gene. Forskolin, an activator of adenylate cyclase, increases cyclic-AMP (cAMP) concentrations. Interleukin-1, itself a bone resorption agent binding to its receptor on the cellular membrane, launches a cascade resulting in the activation of the transcription factor nuclear-factor κ-B (NFκB). Cyclic-AMP and NFκB both activate the expression of the COX-2 gene. Cyclic-AMP activates the expression of the COX-2 gene via the cAMP-response element binding protein (CREBP), which binds to the cAMP response element (CRE) in the COX-2 promoter. The COX-2 promoter also contains an NFκB binding element.
Fatty Acid Compositional Analysis of Osteoblasts. Osteoblast cells exposed to the PUFA treatments (SDA and LNA) are subjected to a gas chromotographic analysis of the FAME from extracted lipids of washed cells.

[6] = then supplemented diet 30 days, compared to linolenic acid diet

With CC/C=C\C/C=C\C/C=C\C/C=C\CCCCC(=O)O [SDA, 6Z, 9Z, 12Z, 15Z-octadecatetraenoic acid] as the molecule, how does the “PGE2 production in osteoblasts” value [1] read?
The value was “attenuate PGE2 production”.

And the “activity of alkaline phosphatase” value [2]?
The value was “highest activity”.

And the “altering the concentrations of omega-3 fatty acid” value [3]?
The value was “more effective”.

What about the “arachidonic acid in plasma and liver” value ([4]; then SDA supplemented diet 30 days) of the same molecule?
The value was “trend of decreased arachidonic acid”.

What about the “concentrations of 22:5n-3 in red blood cell membranes, plasma, and liver tissue” value [4, 6] of the same molecule?
The value was “elevated concentrations”.

What about the “concentrations of EPA in red blood cell membranes, plasma, and liver tissue” value [4, 6] of the same molecule?
The value was “elevated concentrations”.

And the “concentrations of total omega-3 fatty acid in osteoblasts” value ([5]; SDA at increasing treatment levels)?
Its value is “increased concentrations”.

What about the “22:5n-3 in osteoblasts” value ([5]; SDA treatment of osteoblasts) of the same molecule?
The value was “particularly elevates”.

What about the EPA in osteoblasts ([5]; SDA treatment of osteoblasts) of the same molecule?
Its EPA in osteoblasts is “particularly elevates”.
